Results from patent publication US20170252469A9, “Method for predicting autism spectrum disorders by cannabinoid and cannabinoid receptor expression” (The United of America as represented by the Secretary of …, priority 2011, published 2017).
Entries after “also recorded” stand apart in the source; their conditions may differ.

Experiments:
129S1/SvImJ mice [1] = test: three-chamber social approach test in 129S1/SvImJ mice; type: in vivo, mouse; conditions: 129S
Text: (§1) BTBR T+tf/J, 129S1/SvImJ and C57BL/6 mouse colony founders were originally obtained from the Jackson Laboratory (Bar Harbor, Me., USA). These strains were bred in the animal facilities of the University of Texas Health Science Center at San Antonio through 2 generations. After weaning at 23-25 days of age, male littermates were housed in groups of 4-5 per cage until behavioral testing at 3-4 months of age. Mice had ad libitum access to food (Teklad™ rodent diet, Harlan, Indianapolis, Ind., USA) and water in ventilated clear plastic cages lined with chipped wood bedding.
(§2) The cannabinoid agonist WIN55,212-2 (Ascent Scientific, Princeton, N.J., USA) was dissolved initially in dimethyl-sulfoxide (DMSO Sigma) and was diluted with saline (1:10) to administer 0.1 mg/kg i.p. in 10% DMSO to mice. […] Injections were given 30 minutes prior to introduction to the testing arena for conditioning, and 50 min prior to behavior testing.
The three-chamber sociability testing procedure for mice is described in detail in Yang et al. Curr. Protoc. Neurosci., Chapter 8: Unit 8. 26 (2011), our study was conducted in a manner consistent with that protocol. Mice were introduced into the center chamber of an acrylic three-chamber sociability arena, measuring 30×22×61 cm with a light tan bottom, black side walls and two transparent interior walls with slat door openings of 10 cm^2 […] dividing the arena into 3 chambers, for 20 min prior to behavioral testing. As described in Gould et al. J. Neurochem., 116: 291-303 (2011), pre-conditioning was performed under low red light (16 lux) at first for 10 min with the mouse confined in the center chamber, then with the doors opened so the subject could explore the entire arena for 10 min longer. […] Digital video cameras (Hewlett-Packard Photosmart™ R742, Palo Alto, Calif., USA) positioned on top of tripods overseeing the arenas were turned on, the doors were removed and social approach behavior was recorded for 10 min under low red light.

BTBR mice [2] = test: three-chamber social novelty test in BTBR mice; type: in vivo, mouse; conditions: WIN 55,212-2 0.1 mg/kg i.p.; for time in the chamber with the novel stranger / chamber entries: acetaminophen 100 mg/kg; for time in the chamber with the novel stranger: vs controls; for chamber entries: social novelty test, BTBR
Protocol: as §2
(§3) The social approach test ended with confinement of the subject into the center chamber and closing of the slat doors. A new stranger mouse was then placed under the empty cup cage, the doors were opened, and behavior was recorded for another 10 min under low red light to assess preference for social novelty. At the end of the test, stranger mice were returned to their home cages for use in subsequent tests, and subject mice were removed from the arena and placed in a marble burying test. The number of boli in the center of the arena was counted prior to cleaning the arena with a solution of 70% EtOH and paper towels prior to conditioning and testing the next animal. Digital videos were analyzed for box entries, time in box and social sniffing time by observers blind to mouse strain or drug treatments.

BTBR mice [3] = test: three-chamber social approach test in BTBR mice; type: in vivo, mouse
Text: as §1, §2
The three-chamber sociability testing procedure for mice is described in detail in Yang et al. Curr. Protoc. Neurosci., Chapter 8: Unit 8. 26 (2011), our study was conducted in a manner consistent with that protocol. Mice were introduced into the center chamber of an acrylic three-chamber sociability arena, measuring 30×22×61 cm with a light tan bottom, black side walls and two transparent interior walls with slat door openings of 10 cm^2 […] dividing the arena into 3 chambers, for 20 min prior to behavioral testing. As described in Gould et al. J. Neurochem., 116: 291-303 (2011), pre-conditioning was performed under low red light (16 lux) at first for 10 min with the mouse confined in the center chamber, then with the doors opened so the subject could explore the entire arena for 10 min longer. Just prior to testing, subjects were briefly confined in the center chamber while an empty wire cup cage was placed at one end of the arena, and a stranger mouse of the same strain was placed under an identical cup cage at the opposite end. Stranger mice were neither litter- nor cage-mates of the subjects and were housed in a separate ventilated cage rack. Stranger mice were pre-conditioned under cup cages in 3 sessions of 30 min each in the day(s) prior to testing, separated by 1 hour reprises in their home cages. Cup cages were topped with weighted jars (9 cm high×7 cm diameter) to prevent mice from climbing on top of them. Digital video cameras (Hewlett-Packard Photosmart™ R742, Palo Alto, Calif., USA) positioned on top of tripods overseeing the arenas were turned on, the doors were removed and social approach behavior was recorded for 10 min under low red light.

129S1/SvImJ mice [4] = test: three-chamber social novelty test in 129S1/SvImJ mice; type: in vivo, mouse; conditions: 129S, FIG. 3c; for time in the arena chamber with a new stranger mouse: acetaminophen 100 mg/kg i.p.
Protocol: as §2, §3

BTBR mice [5] = test: marble burying test in BTBR mice, acute treatment; type: in vivo, mouse; conditions: 30 min, FIG. 2d
Protocol: as §2

5-HT neurons = conditions: literature; cited from earlier work
mice = conditions: administration of anandamide or high doses of acetaminophen; Umathe et al. 2009; cited from earlier work
BTBR mice [6] = test: 2-AG levels after injections in early postnatal development; type: in vivo, mouse; conditions: 100 mg/kg i.p. injections from 18-21 days postnatal, 59 days, FIG. 6
Protocol: (§4) The mice were then tested for marble burying and evaluated for neurochemical measures.

BTBR and C57BL/6 mice = test: marble burying after injections in early postnatal development; type: in vivo, mouse; conditions: 100 mg/kg i.p. injections from 18-21 days postnatal, 59 days, FIG. 5
Protocol: as §4

129S1/SvImJ mice [7] = test: marble burying test in 129S1/SvImJ mice, acute treatment; type: in vivo, mouse; conditions: 129S, acetaminophen 100 mg/kg i.p., FIG. 3d
Protocol: as §2

5-HT receptors = conditions: literature; cited from earlier work

SMILES: Cc1c(C(=O)c2cccc3ccccc23)c2cccc3c2n1[C@H](CN1CCOCC1)CO3 [WIN 55,212-2]
- time in the center chamber (129S1/SvImJ mice [1]; WIN 55,212-2 0.1 mg/kg i.p.): increased time spent by 129S mice in the arena center; also recorded: spent more time than acetaminophen (100 mg/kg) or vehicle (saline±10% DMSO) treated mice in the center chamber
- time in the arena center (BTBR mice [2]; social novelty, FIG. 2c): reduced dwelling in the arena center; also recorded: spent less time than the other groups in the arena center
- time in the chamber with the novel stranger (BTBR mice [2]; FIG. 2c): reduced time spent in the chamber of the arena with a novel stranger; also recorded: spent less time in the box with the novel stranger than controls
- chamber entries (BTBR mice [2]): 19±3
- time in the arena center (BTBR mice [3]; WIN 55,212-2 0.1 mg/kg i.p., social approach, FIG. 2a): increased lingering in the arena center
- dwelling in the center chamber (129S1/SvImJ mice [4]; WIN 55,212-2 0.1 mg/kg i.p.): increased dwelling in the center chamber of the arena
- marbles buried (BTBR mice [5]): trend toward WIN 55212 treated mice burying fewer than controls
- presynaptic 5-HT release in brain (5-HT neurons): inhibit presynaptic 5-HT release in brain

SMILES: CCCCC/C=C\C/C=C\C/C=C\C/C=C\CCCC(=O)NCCO [anandamide, N-arachidonoylethanolamine]
- social interactions (mice): promote social interactions in mice

SMILES: CC(=O)Nc1ccc(O)cc1 [acetaminophen]
- 2-AG levels (BTBR mice [6]): significant affect on 2-AG levels; also recorded: diminution of 2-AG levels
- marble burying behavior (BTBR and C57BL/6 mice): induced significant marble burying behavior
- marble burying (129S1/SvImJ mice [7]): greater than in vehicle-control or WIN 55,212-2 treated 129S mice
- marble burying (129S1/SvImJ mice [7]; listed as Acetaminophen): increased marble burying behavior relative to control or WIN 55,212 treatments
- time spent sniffing the stranger mouse or investigating the empty cage (129S1/SvImJ mice [1]; FIG. 3b): trend toward acetaminophen-treated 129S mice spending more time investigating strangers that did not reach significance
- chamber entries (129S1/SvImJ mice [1]; acetaminophen 100 mg/kg, WIN 55,212-2 0.1 mg/kg i.p.): 21±5
- affinity for 5-HT receptors (5-HT receptors): little to no affinity for 5-HT receptors
- time in the chamber with the novel stranger (BTBR mice [2]; FIG. 2c): reduced time spent in the chamber of the arena with a novel stranger; also recorded: spent less time in the box with the novel stranger than controls
- chamber entries (BTBR mice [2]): 50±7
- social interactions (mice): promote social interactions in mice
- dwelling near confined stranger mice (BTBR mice [3]; 100 mg/kg i.p. 50 min prior to testing, adult male BTBR, FIG. 1): increased dwelling near confined stranger mice
- dwelling near confined stranger mice (BTBR mice [3]; 400 mg/kg i.p. 50 min prior to testing, adult male BTBR, FIG. 1): increased dwelling near confined stranger mice
- time in the chamber with the empty cage (BTBR mice [3]; acetaminophen 100 mg/kg i.p., vs vehicle controls or WIN 55,212-2 0.1 mg/kg): less time in the chamber with the empty cage
- time in the chamber with the stranger mouse (BTBR mice [3]; acetaminophen 100 mg/kg i.p., vs vehicle controls or WIN 55,212-2 0.1 mg/kg, FIG. 2a): increased dwelling near stranger mice; also recorded: spent more time in the chamber with the stranger mouse
- lowest dose to significantly increase time spent in the chamber with a stranger mouse above saline-injected controls (BTBR mice [3]; adult male BTBR, dose-response 1-400 mg/kg i.p., FIG. 1): 100 mg/kg
- time in the arena chamber with a new stranger mouse (129S1/SvImJ mice [4]): spent significantly more time than controls in the arena chamber with a new stranger mouse
- time in the arena chamber with a new stranger mouse (129S1/SvImJ mice [4]; listed as Acetaminophen): increased dwelling near new strangers relative to controls
